Patent US8258135B2, “Quinolizidinone M1 receptor positive allosteric modulators” (Merck Sharp & Dohme Corp., priority 2007, dated 2012)

Molecular target: T1, acetylcholine muscarinic M1 receptor (Homo sapiens, UniProt P11229)
T1 construct: expressed in transfected cells; host or cells: CHOnfat (CHO cells, NFAT reporter background) expressing hM1
T1 sequence (P11229 1-460): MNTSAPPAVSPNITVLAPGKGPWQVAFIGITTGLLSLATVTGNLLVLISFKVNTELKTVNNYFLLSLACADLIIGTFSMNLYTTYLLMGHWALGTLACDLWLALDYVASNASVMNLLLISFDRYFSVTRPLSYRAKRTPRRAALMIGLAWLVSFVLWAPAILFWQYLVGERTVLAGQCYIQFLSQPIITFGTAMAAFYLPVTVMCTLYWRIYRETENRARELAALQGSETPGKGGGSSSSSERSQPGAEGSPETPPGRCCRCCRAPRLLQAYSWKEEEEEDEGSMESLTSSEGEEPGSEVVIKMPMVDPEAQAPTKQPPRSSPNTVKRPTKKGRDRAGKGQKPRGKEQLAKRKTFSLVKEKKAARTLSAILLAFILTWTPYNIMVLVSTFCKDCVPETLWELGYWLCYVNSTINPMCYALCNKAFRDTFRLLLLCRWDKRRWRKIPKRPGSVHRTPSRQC
Assay: muscarinic FLIPR assay: intracellular calcium in CHOnfat/hM1 cells, potentiation of EC20 acetylcholine
Format: cell-based
Details: not given
Procedure: The assay studies the effect of one or several concentrations of test compounds on basal or acetylcholine-stimulated Ca^2+ levels using FLIPR.
Compounds are prepared and subjected to a preincubation period of 4 min. Thereafter, a single EC20 concentration of acetylcholine is added to each well (3 nM final). The intracellular Ca^2+ level of each sample is measured and compared to an acetylcholine control to determine any modulatory activity.
Cells: CHOnfat/hM1, hM2, hM3 or hM4 cells are plated 24 hr before the assay at a density of 18,000 cells/well (100 μL) in a 384 well plate. CHOnfat/hM1 and CHOnfat/hM3 Growth Medium: 90% DMEM (Hi Glucose); 10% HI FBS; 2 mM L-glutamine; 0.1 mM NEAA; Pen-Strep; and 1 mg/ml Geneticin, are added. For M2Gqi5CHOnfat and M4Gqi5CHOnfat cells, an additional 600 ug/ml hygromycin is added.
Equipment: 384 well plate, 120 μL addition plate; 96-well Whatman 2 ml Uniplate Incubator, 37° C., 5% CO2; Skatron EMBLA-384 Plate Washer; Multimek Pipetting System; Genesis Freedom 200 System; Mosquito System; Temo Nanoliter Pipetting System; and FLIPR^384 Fluorometric Imaging Plate Reader System are used.
Buffers. Assay Buffer: Hanks Balanced Salt Solution, with 20 mM Hepes, 2.5 mM Probenecid (Sigma P-8761) first dissolved in 1N NaOH, 1% Bovine Serum Albumin (Sigma A-9647). Dye Loading Buffer: Assay Buffer plus 1% Fetal Bovine Serum and Fluo-4AM/Pluronic Acid Mixture. 2 mM Fluo-4AM ester stock in DMSO (Molecular Probes F-14202) Concentration of 2 uM in buffer for a final concentration of 1 μM in Assay. 20% Pluronic Acid Solution stock, with concentration of 0.04% in Buffer, 0.02% in Assay.
65 μL of 2 mM Fluo-4AM are mixed with 130 μL of 20% Pluronic Acid. The resulting solution and 650 μL FBS is added to the assay buffer for a total volume of 65 mL. Positive Controls: 4-Br-A23187: 10 mM in DMSO; final concentration 10 μM. Acetylcholine: 10 mM in water, working stock at both 20 uM and 30 uM in assay buffer, final concentration of 10 μM. This is used to check the maximum stimulation of the CHOK1/hM1 cells. 20 uM (2×) acetylcholine is added in the preincubation part of the assay, and the 30 uM (3×) stock is added in the second part. (EC20)Acetylcholine: 10 mM in water, working stock of 9 nM (3×), and final concentration in assay is 3 nM. This is used after the preincubation with test compounds. Addition of the EC20) Acetylcholine to each well with a test compound will ascertain any modulator activity. 24 wells contain 3 nM Acetylcholine alone as a control.
Determining Activity of Putative Compounds:
Screening Plate Compounds are titrated in 96-well plates (columns 2-11), 100% DMSO, started at a concentration of 15 mM (150× stock concentration), and 3-fold serial dilutions using Genesis Freedom200 System. Four 96-well plates are combined into a 384-well plate using Mosquito Nanoliter Pipetting System by transferring 1 ul of serial diluted compounds to each well, and 1 mM acetylcholine (100× stock concentration) were added as a control. Using Temo, 49 μl assay buffer is added to each well of the 384-well plate right before assay.
In a 96-well Whatman 2 ml Uniplate, 9 nM Acetylcholine (3×) is pipetted into wells corresponding to the screening compounds, and into control wells. The 30 uM acetylcholine control (3×) is added into control wells, and the 3× agonist plate is transferred into a 384 well plate.
Cells are washed three times with 100 μL of buffer, leaving 30 μL of buffer in each well. Using Multimek, 30 μL of Dye Loading Buffer is added into each well and incubated at […], 5% CO2 for up to one hr.
After 60 min, the cells are washed three times with 100 μL of buffer, leaving 30 μL of buffer in each well. The cell plate, screening plate, and agonist addition plates are placed on the platform in the FLIPR and the door closed. A signal test to check background fluorescence and basal fluorescence signal is performed. Laser intensity is adjusted if necessary. […]

Going from `N#CC1(c2ccccc2)CCN(Cc2cc(C(=O)O)c(=O)n3ccccc23)CC1` [Example 3] to `Cc1cccc(C2(C#N)CCN(Cc3cc(C(=O)O)c(=O)n4ccccc34)CC2)c1` [Example 8], the EC50 falls from 152 nM to 87 nM (1.7-fold). The second is the more potent here.

First: COc1ccccc1C1(C#N)CCN(Cc2cc(C(=O)O)c(=O)n3ccccc23)CC1 [Example 10]
Second: N#CC1(c2nc3ccccc3s2)CCN(Cc2cc(C(=O)O)c(=O)n3ccccc23)CC1 [Example 45]
The EC50 of the first is 1.8-fold higher: 164 nM for the first, 91 nM for the second. The second is the more potent here.

Going from `N#CC1(c2cccc(Cl)n2)CCN(Cc2cc(C(=O)O)c(=O)n3ccccc23)CC1` [Example 28] to `N#CC1(c2cccc(F)c2)CCN(Cc2cc(C(=O)O)c(=O)n3ccccc23)CC1` [Example 46, 1-{[4-cyano-4-(3-fluorophenyl)piperidin-1-yl]methyl}-4-oxo-4H-quinolizine-3-carboxylic acid], the EC50 rises from 133 nM to 562 nM (4.2-fold). The first is the more potent here.

With `N#CC1(c2cccnc2)CCN(Cc2cc(C(=O)O)c(=O)n3ccccc23)CC1` [Example 47, 1-[(4-cyano-4-pyridin-3-ylpiperidin-1-yl)methyl]-4-oxo-4H-quinolizine-3-carboxylic acid] the EC50 was 363 nM.

Same assay, conditions: CHOnfat/hM1 cells, FLIPR, 4 min preincubation, then EC20 acetylcholine (3 nM final); read-out: IP Value (inflection point)

Going from `N#CC1(c2cnc3ccccc3n2)CCN(Cc2cc(C(=O)O)c(=O)n3ccccc23)CC1` [Example 42] to `C=Cc1ccc(C2(C#N)CCN(Cc3cc(C(=O)O)c(=O)n4ccccc34)CC2)nc1` [Example 50, 1-{[4-cyano-4-(5-vinylpyridin-2-yl)piperidine-1-yl]methyl}-4-oxo-4H-quinolizine-3-carboxylic acid], the EC50 falls from 1240 nM to 403 nM (3.1-fold). The second is the more potent here.

First: N#CC1(c2ncccc2Br)CCN(Cc2cc(C(=O)O)c(=O)n3ccccc23)CC1 [Example 48, 1-{[4-(3-bromopyridin-2-yl)-4-cyanopiperidin-1-yl]methyl}-4-oxo-4H-quinolizine-3-carboxylic acid]
Second: C=Cc1cccnc1C1(C#N)CCN(Cc2cc(C(=O)O)c(=O)n3ccccc23)CC1 [Example 49, 1-{[4-cyano-4-(3-vinylpyridin-2-yl)piperidin-1-yl]methyl}-4-oxo-4H-quinolizine-3-carboxylic acid]
The EC50 of the first is 1.9-fold lower: 3400 nM for the first, 6300 nM for the second. The first is the more potent here.
